Test results as given in patent publication US10336721B2, “Biaryltriazole inhibitors of macrophage migration inhibitory factor” (YALE UNIVERSITY, priority 2015, dated 2019).
Converted amounts (≈) assume the structure as drawn.

Legend:
[1] = target: T1, human MIF (Homo sapiens (Human), UniProt P14174); assay: X-ray crystallography of complexes with human MIF; assay type: binding
Protocol: The solution was centrifuged at 13,000×g to remove precipitated compound and used to set up hanging-drop crystallization experiments. A reservoir of 2.0 M ammonium sulfate, 0.1 M Tris pH 7, and 3% isopropanol was added to the protein solution in a 1:1 ratio and stored at 20° C. Diffraction-quality crystals with a rod morphology grew within two weeks. The crystals were cryo-protected in 25% glycerol, 2.0M ammonium sulfate, 0.1 M Tris pH 7, and 3% isopropanol. Data was collected at the Advanced Photon Source remotely on the NE-CAT 24-ID-E beam line. […] Crystals were obtained by the hanging-drop method at 20° C. A reservoir of 2.2 M ammonium sulfate, 0.1 M Tris pH 7, and 3% isopropanol mixed in a 1:1 ratio with rhMIF (16 mg/mL) was used to produce 2 μL drops. […] Crystals were cryo-protected with 25% glycerol, 2.2 M ammonium sulfate, 0.1 M Tris pH 7, and 3% isopropanol. […] HKL2000 was used to index, integrate, and scale the MIF-3a data set in the […] space group and the MIF-3b in the P212121 space group. Phases were obtained by molecular replacement with PDB file 3U18 using the CCP4 and PHASER programs. Model building was performed in COOT with iterative restrained refinement with REFMAC.

[2] = target: T1, human MIF; assay: Inhibition of tautomerase activity of human MIF (HPP substrate); assay type: biochemical; conditions: MIF tautomerase, HPP substrate, 50 nM MIF
[3] = Aqueous solubility; assay type: physicochemical; conditions: aqueous solvent (not further specified), μg compound/mL solvent

Ki [2] | solubility [3] | SMILES | binding site from X-ray crystal structure of complex [1]
 |  | Oc1ccc(-n2cc(-c3ccc4ccccc4n3)nn2)cc1 [Example 3a, 4-(4-(quinolin-2-yl)-1H-1,2,3-triazol-1-yl)phenol] | confirm the binding of these inhibitors in the tautomerase active site
 |  | COCCOc1ccc2nc(-c3cn(-c4ccc(O)cc4)nn3)ccc2c1 [Example 3b, 4-(4-(6-(2-methoxyethoxy)quinolin-2-yl)-1H-1,2,3-triazol-1-yl)phenol] | confirm the binding of these inhibitors in the tautomerase active site
 |  | Oc1ccc(-n2cc(-c3ccc4cc(OCCOCCN5CCOCC5)ccc4n3)nn2)cc1 [Example 3v, 4-(4-(6-(2-(2-morpholinoethoxy)ethoxy)quinolin-2-yl)-1H-1,2,3-triazol-1-yl)phenol] | confirm the binding of these inhibitors in the tautomerase active site
45 nM | 867 µg/mL (≈ 2040 µM) | O=C(O)COCCOc1ccc2nc(-c3cn(-c4ccc(O)c(F)c4)nn3)ccc2c1 [Example 44, 2-(2-((2-(1-(3-Fluoro-4-hydroxyphenyl)-1H-1,2,3-triazol-4-yl)quinolin-6-yl)oxy)ethoxy)acetic acid] | 
 | 364 µg/mL (≈ 1010 µM) | O=C(O)COc1ccc2nc(-c3cn(-c4ccc(O)cc4)nn3)ccc2c1 [Example 45] | 
